System: antibody specific to carbamazepine
Test: Interference from other drugs in the carbamazepine ELISA assay
Type: binding, rabbit
Conditions: chemical tested at 10.0 μg/ml; procedures of Example 4 (competitive ELISA); tested in duplicate
Experimental: Production of the antibodies of the present disclosure was performed with conventional methods. In brief, the immunogen as prepared in Example 2 was diluted to 1.0 mg/ml in phosphate buffered saline (PBS). 1.0 ml of the immunogen solution was injected into rabbits with complete Freunds adjuvant. After 2-3 weeks, the animal was injected with 1.0 ml of the same immunogen solution with incomplete Freunds adjuvant. The same injection was repeated every other week until acceptable titer was obtained.
The Carbamazepine ELISA was developed with the antibody generated from Example 3. This assay is a competitive micro-immunoassay for determination of carbamazepine in a fluid sample. Carbamazepine in the fluid sample and carbamazepine derivative linked with the enzyme (HRP)-conjugate compete for the finite sites of the antibody coated on the solid surface of the microwell. If little or no carbamazepine is present in the fluid sample, more enzyme labeled carbamazepine derivative will bind to the antibody on the solid surface. Conversely, if a large or a significant amount of carbamazepine is present in the fluid sample, less enzyme labeled carbamazepine derivative will bind to the antibody, producing less color signal. The absorbance produced is inversely proportional to the amount of carbamazepine in the fluid sample.
Interference from other drugs was tested using 30 frequently used chemicals and medicines, at concentrations of 10.0 μg/ml.
The samples were tested in duplicate, following the procedures used in Example 4. All 30 samples produced a negative test result. Thus, the immunoassay of the present disclosure is specific to carbamazepine.

Compound: CCN(CC)CCNC(=O)c1ccc(N)cc1 [Procainamide]
- Equivalent Carbamazepine Conc.: <0.1 µg/mL

Compound: Ecgonine
- Equivalent Carbamazepine Conc.: <0.1 µg/mL

Compound: CC(=O)Oc1ccccc1C(=O)O [Acetylsalicylic Acid]
- Equivalent Carbamazepine Conc.: <0.1 µg/mL

Compound: O=C(O)c1cc(O)ccc1O [Gentisic Acid]
- Equivalent Carbamazepine Conc.: <0.1 µg/mL

Compound: CN[C@@H](C)[C@H](O)c1ccccc1 [(L)-Ephedrine]
- Equivalent Carbamazepine Conc.: <0.1 µg/mL

Compound: COC(=O)[C@@H]1[C@H]2CC[C@@H](C[C@@H]1O)N2C [Ecgonine Methyl Ester]
- Equivalent Carbamazepine Conc.: <0.1 µg/mL

Compound: CN[C@@H](C)Cc1ccccc1 [d-Methamphetamine]
- Equivalent Carbamazepine Conc.: <0.1 µg/mL

Compound: CNC[C@H](O)c1cccc(O)c1 [Phenylephrine]
- Equivalent Carbamazepine Conc.: <0.1 µg/mL

Compound: CCN(CC)CC(=O)Nc1c(C)cccc1C [Lidocaine]
- Equivalent Carbamazepine Conc.: <0.1 µg/mL

Compound: CC(C(=O)O)c1cccc(Oc2ccccc2)c1 (centres unmarked) [Fenoprofen]
- Equivalent Carbamazepine Conc.: <0.1 µg/mL

Compound: CC(C)Cc1ccc(C(C)C(=O)O)cc1 (centres unmarked) [Ibuprofen]
- Equivalent Carbamazepine Conc.: <0.1 µg/mL

Compound: Penicillin
- Equivalent Carbamazepine Conc.: <0.1 µg/mL

Compound: CN1C(=O)CC[C@H]1c1cccnc1 [(−)-Cotinine]
- Equivalent Carbamazepine Conc.: <0.1 µg/mL

Compound: Cc1cc(CC(=O)O)n(C)c1C(=O)c1ccc(Cl)cc1 [Zomepirac]
- Equivalent Carbamazepine Conc.: <0.1 µg/mL

Compound: O=C(O)C1N=C(c2ccccc2)c2cc(Cl)ccc2NC1=O (centres unmarked) [Clorazepate]
- Equivalent Carbamazepine Conc.: <0.1 µg/mL

Compound: COc1ccc2c3c1O[C@H]1C(=O)CC[C@H]4[C@@H](C2)N(C)CC[C@]314 [Hydrocodone]
- Equivalent Carbamazepine Conc.: <0.1 µg/mL

Compound: CCC1(CCC(C)C)C(=O)NC(=O)NC1=O [Amobarbital]
- Equivalent Carbamazepine Conc.: <0.1 µg/mL

Compound: CC1(C)S[C@@H]2[C@H](NC(=O)[C@H](N)c3ccccc3)C(=O)N2[C@H]1C(=O)O [Ampicillin]
- Equivalent Carbamazepine Conc.: <0.1 µg/mL

Compound: CN(C)CCCN1c2ccccc2Sc2ccc(Cl)cc21 [Chlorpromazine]
- Equivalent Carbamazepine Conc.: <0.1 µg/mL

Compound: Cn1c(=O)c2c(ncn2C)n(C)c1=O [Caffeine]
- Equivalent Carbamazepine Conc.: <0.1 µg/mL

Compound: NC(=O)c1cccnc1 [Niacinamide]
- Equivalent Carbamazepine Conc.: <0.1 µg/mL

Compound: CCN(CC)CCOC(=O)c1ccc(N)cc1 [Procaine]
- Equivalent Carbamazepine Conc.: <0.1 µg/mL

Compound: NCCc1ccccc1 [beta-Phenylethylamine]
- Equivalent Carbamazepine Conc.: <0.1 µg/mL

Compound: CC(N)C(O)c1ccccc1 (centres unmarked) [Phenylpropanolamine]
- Equivalent Carbamazepine Conc.: <0.1 µg/mL

Compound: C=C[C@H]1C[N@@]2CC[C@H]1C[C@@H]2[C@@H](O)c1ccnc2ccc(OC)cc12 [Quinidine]
- Equivalent Carbamazepine Conc.: <0.1 µg/mL

Compound: COc1ccc2cc([C@H](C)C(=O)O)ccc2c1 [Naproxen]
- Equivalent Carbamazepine Conc.: <0.1 µg/mL

Compound: CN(C)CCCN1c2ccccc2CCc2ccccc21 [Imipramine]
- Equivalent Carbamazepine Conc.: <0.1 µg/mL

Compound: CN1C(=O)CN=C(c2ccccc2)c2cc(Cl)ccc21 [Diazepam]
- Equivalent Carbamazepine Conc.: <0.1 µg/mL

Compound: Cc1ccc(C)c(OCCCC(C)(C)C(=O)O)c1 [Gemfibrozil]
- Equivalent Carbamazepine Conc.: <0.1 µg/mL

From patent US8563713B2, “Antibodies specific to carbamazepine” (priority 2011, dated 2013)
